This is an account of results in patent publication US7618984B2, “Sulfonamide compound” (Asahi Kasei Pharma Corporation, priority 2005, dated 2009).

Structures are written as SMILES. pIC50: −log10 of the molar value. Where only a bound is given, the exact number is not on record here.

In test [1] the test system is phosphorylation of myosin regulatory light chain. The experiment in a line: Inhibitory action on phosphorylation of myosin regulatory light chain (Test Example 1). Type of test: cell-based. Conditions: Neutrophil, 5 min; human peripheral blood neutrophils, 25° C. for 5 minutes; read-out: IC50, compound concentration providing a phosphorylation inhibition ratio of 50% (myosin regulatory light chain). The method, then: A volume of 50 to 100 ml of peripheral blood collected from healthy volunteers was centrifuged by using Mono-Poly separator solution (Dainippon Pharmaceutical) to prepare a neutrophil containing fraction. The neutrophils were washed with PBS(−) and resuspended in Hanks' Balanced Salt Solution (HBSS+, Gibco) to prepare a cell suspension (8×10^6/ml). The cell suspension was diluted to 5×10^6/ml, introduced into Eppendorf tubes in a volume of 0.4 ml each, then 0.1 ml each of solutions of a test compound at various concentrations were added to the suspension and allowed to react at 25° C. for 5 minutes. After the reaction, 0.1 ml of trichloroacetic acid solution was added to each reaction mixture, the reaction mixture was gently shaken and centrifuged at 12,000 rpm (4° C., 5 minutes), and the supernatant was removed. Subsequently, 3 μl of 1 M Tris solution was added to the residue, the mixture was further mixed with 50 μl of extraction buffer (8 M urea, 0.02% 2-mercaptoethanol, 0.002% bromophenol blue) and left stand at room temperature for 1 hour. Then, the reaction mixture was loaded on a spin column (0.45 μm, Millipore) to remove the insoluble solids and a sample buffer for SDS polyacrylamide gel electrophoresis (25 mM, Tris-HCl pH 6.8, 2.5% 2-mercaptoethanol, 2% sodium dodecylsulfate, 5% sucrose, 0.002% bromophenol blue as final concentrations) was added, and 10 μl of each sample was subjected to electrophoresis.
The gel after the electrophoresis was blotted on a nitrocellulose membrane (BioRad), blocked with 5% skim milk, and reacted successively with antibodies pLC1 (Sakurada K. et al, Am. J. Physiol., 274, C1563-C1572 (1998)), which specifically recognize the phosphorylated myosin regulatory light chain, and donkey anti-mouse IgG (Chemicon) conjugated with horseradish peroxidase. The band of the phosphorylated myosin regulatory light chain was detected on a film by using ECL Plus Kit (Amersham Pharmacia Biotech). This band was subjected to quantification using a densitometer. By using this value, the inhibitory ratio (%) for phosphorylation of the myosin regulatory light chain was calculated by using the following equation. Phosphorylation inhibition ratio(%)=1−(Band intensity of phosphorylated myosin regulatory light chain with addition of the test compound/Band intensity of phosphorylated myosin regulatory light chain without addition of the test compound)×100
Further, the phosphorylation inhibition ratio was calculated with changing the concentrations of the test compound, and a compound concentration providing an inhibition ratio of 50% was obtained as IC50.

The next test deals with neutrophils. The experiment in a line: Neutrophil migration inhibitory action, Boyden Chamber, FMLP (Test Example 3). The test is classed as cell-based. Particulars: 0.5 h, human neutrophils, FMLP 1 μM, 37° C., 30 minutes, read-out: IC50, compound concentration providing a migration inhibition ratio of 50%. The method, then: Neutrophils were isolated from 50 to 100 ml of peripheral blood collected from healthy human donors by the method described in Test Example 1 to obtain a cell suspension (8×10^6/ml). Subsequently, solutions of a test compound at various concentrations were introduced into wells of a 96-well plate in a volume of 125 μl per well, the cell suspension of an equivalent volume was added to it and the plate was preincubated at room temperature for 5 minutes. During the preincubation, FMLP (1 μM, Sigma) solution was added to the lower chamber to set Boyden Chamber, the preincubated cell suspension was added to the upper chamber in a volume of 200 μl per well, and the cells were allowed to migrate at 37° C. under 5% carbon dioxide for 30 minutes. The filter after the migration was collected, and the non-migrated cells adhered to the surface that faced the upper chamber were carefully wiped off. Then, the migrated cells on the back surface were stained with DifQuick dye solution (International Reagents), washed with water and dried, and then absorbance was measured at 595 nm. The inhibition ratio against migration (%) of a test compound was calculated by using the following equation: Migration inhibition ratio(%)=(1−Absorbance of the group with addition of test compound/Absorbance of the group without addition of test compound)×100
Further, the migration inhibitory ratio was calculated with changing the test compound concentration, and a compound concentration providing an inhibition ratio of 50% was obtained as IC50.

The test system of test [2] is rabbit intraocular pressure. The experiment in a line: Rabbit intraocular pressure reduction enhancing action, combination use (Test Example 6-1). Type of test: in vivo, Japanese white rabbit. Particulars: 50 μL, difference of left and right eyes, 2, 4 and 6 hours. The procedure: However, the effect is not limited to the 19-1 compound, and the ophthalmic solution concentration of the 19-1 compound is not limited to those used in this test example. Moreover, as for the test compound used for combination use, similar effect can be obtained also with the compounds of the present invention represented with the example numbers mentioned in Test Example 2.
As a test compound, the 19-1 compound was dissolved in physiological saline, and the solution was neutralized by addition of sodium hydroxide (pH 7.0 to 8.0) to prepare a 0.01 weight % aqueous solution (19-1 compound aqueous solution). As the drugs for combination use, isopropyl unoprostone (trade name: Rescula, Santen Pharmaceutical) was used as a prostaglandin-related drug, and brinzolamide hydrochloride (trade name: Azopt, Alcon Japan) was used as […], as the marketed formulations as they were.
A Japanese white rabbit having a body weight of about 2 kg was placed in a positioner and naturalized for one week before the experiment. An opthalmologic local anesthesant (Benoxil) was administered to both eyes, and then intraocular pressure before instillation was measured by using a tonometer (Classic 30, Solan). A test aqueous solution or the drug for combination use was administered to the left eye, and the right eye was not treated (control eye). The test groups consisted of (1) control group, (2) group instilled only with the 19-1 compound aqueous solution (single drug group 1), (3) group instilled only with the drug for combination use (single drug group 2), and (4) group instilled with the drug for combination use and the 19-1 compound aqueous solution (combination use group), and six rabbits were used for each group. As for the rabbits of these groups, 50 μL of physiological saline was first instilled to the control group, single drug group 1, and single drug group 2, and the drug for combination use was first instilled in the same volume to the combination use group. […] The intraocular pressure thereafter was measured for each group 2, 4 and 6 hours after the second administration of the test compound, and the difference of the measured values for the left and right eyes at each measurement time was considered an intraocular pressure reduction value of each group. The largest difference of the intraocular pressure values for the left and right eyes among those of the measured values of the measurement times was considered the maximum intraocular pressure reduction value (max ΔIOP) of each drug group.

Take `N[C@H]1CCN(S(=O)(=O)c2cccc3cncc(Cl)c23)C1` [Example 19-1, (S)-3-Amino-1-(4-chloro-5-isoquinolinesulfonyl)pyrrolidine]: the pIC50 in test [1] was over 5.00; in the test on neutrophils, 4.40 to 5.00. Further, the “Max ΔIOP (maximum intraocular pressure reduction value), Table 2” value in test [2] (0.01 weight % 19-1 compound aqueous solution and/or brinzolamide hydrochloride (Azopt)) was 4.3 mmHg. Moreover, in test [2] (0.01 weight % 19-1 compound aqueous solution and/or isopropyl unoprostone (Rescula)), the “Max ΔIOP (maximum intraocular pressure reduction value), Table 3” value was determined as 4.3 mmHg.
